# Several values for one entry are separate records, joined by “and”; a condition that tells them apart may be missing. Identical values can stand only once. Bridge positions count the residues as written; N and C are the ends. Square brackets hold non-standard residues; d marks the D form. Peptide text beside a SMILES is read from it. * marks the point of attachment. Tyr(3-tBu) = CC(C)(C)c1cc(C[C@H](N)C(=O)O)ccc1O; Ahx = NCCCCCC(=O)O; GABA = NCCCC(=O)O; βAla = NCCC(=O)O; tBu = CC(C)(C)*
# What was measured:
# [1] = biological target: Motilin receptor (Oryctolagus cuniculus, UniProt A5A4K8); assay: Inhibition of the motilin receptor (MTL-R)
# Motilin receptor, sequence (A5A4K8 whole entry): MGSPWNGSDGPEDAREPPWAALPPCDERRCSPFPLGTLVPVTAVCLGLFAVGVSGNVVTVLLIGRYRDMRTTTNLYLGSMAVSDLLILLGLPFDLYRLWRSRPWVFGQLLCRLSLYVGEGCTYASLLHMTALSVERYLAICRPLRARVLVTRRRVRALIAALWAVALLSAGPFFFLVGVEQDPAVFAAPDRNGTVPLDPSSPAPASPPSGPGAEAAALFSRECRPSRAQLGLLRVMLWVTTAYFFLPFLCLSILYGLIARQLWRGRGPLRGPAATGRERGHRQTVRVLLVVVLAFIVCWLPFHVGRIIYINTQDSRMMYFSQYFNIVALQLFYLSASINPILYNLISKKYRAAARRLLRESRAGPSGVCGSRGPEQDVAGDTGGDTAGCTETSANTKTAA
# [2] = organism: Oryctolagus cuniculus; assay: pA2 (Contractile potency) is the negative logarithm of the molar concentration of antagonist causing a 2-fold shift to the right of the concentration response curve for motilin; format: functional, organism-based; details: read-out: pA2 (converted)
# [3] = organism: Oryctolagus cuniculus; assay: Concentration of compound causing 50% inhibition of the smooth muscle contractile activity; format: functional, organism-based; details: Muscle tissue
Structure (SMILES),IC50 [1],EC50 [3] [nM],Kb [2] [nM]
CC(C)(C)c1cc(C[C@H]2NC(=O)[C@@H](NC(=O)[C@@H](N)Cc3ccccc3)CCCCNC(=O)CCNC2=O)ccc1O,3100 nM,> 100000,5370
CC(C)(C)Oc1ccc(C[C@@H]2NC(=O)[C@@H](NC(=O)[C@@H](N)Cc3ccccc3)CCCCNC(=O)CCNC2=O)cc1 (H-FKY(tBu)[βAla]; lactam 2-C),7500 nM,> 100000,120000
CC(C)(C)c1cc(CC2NC(=O)[C@@H](NC(=O)C(N)Cc3ccccc3)CCCCNC(=O)CCNC2=O)ccc1O (stereo not given in full),2100 nM,> 100000,2190
CC(C)(C)c1cc(C[C@@H]2NC(=O)[C@@H](NC(=O)[C@@H](N)Cc3ccccc3)CCCCNC(=O)CCNC2=O)cc(C(C)(C)C)c1O,460 nM,> 10000,
CC(C)(C)c1cc(C[C@@H]2NC(=O)[C@@H](NC(=O)[C@@H](N)Cc3ccccc3)CCCCNC(=O)CCCCCNC2=O)ccc1O (H-FK[Tyr(3-tBu)][Ahx]; lactam 2-C),17 nM and 65 nM,> 100000,83.2
CC(C)(C)c1cc(C[C@@H]2NC(=O)[C@@H](NC(=O)[C@@H](N)Cc3ccccc3)CCCCNC(=O)CCNC2=O)ccc1O,10 nM,> 100000,42.7
CC(C)(C)c1cc(C[C@@H]2NC(=O)[C@@H](NC(=O)[C@@H](N)Cc3ccccc3)CCCCNC(=O)CCCNC2=O)ccc1O (H-FK[Tyr(3-tBu)][GABA]; lactam 2-C),33 nM and 59 nM,> 100000,34.7

# Continued, in another order:
IC50 [1],EC50 [3] [nM],Structure (SMILES),Kb [2] [nM]
480 nM,,CCC(C)Oc1ccc(C[C@@H]2NC(=O)[C@@H](NC(=O)[C@@H](N)Cc3ccccc3)CCCCNC(=O)CCNC2=O)cc1 (stereo not given in full),
1800 nM,> 100000,"CC(C)(C)c1cc(C[C@@H]2NC(=O)[C@@H](NC(=O)C(N)Cc3ccccc3)CCCCNC(=O)CCNC2=O)ccc1O (single isomer, unassigned)",2000
25000 nM and 42000 nM,> 100000,N[C@@H](Cc1ccccc1)C(=O)N[C@H]1CCCCNC(=O)CCNC(=O)[C@H](Cc2ccc(O)cc2)NC1=O (H-FKY[βAla]; lactam 2-C),89100
7 nM and 33 nM,> 100000,CC(C)(C)c1cc(C[C@@H]2NC(=O)[C@@H](NC(=O)[C@@H](N)Cc3ccccc3)CCCCNC(=O)CNC2=O)ccc1O (H-FK[Tyr(3-tBu)]G; lactam 2-C),46.8

# Reference: ChEMBL document CHEMBL1135706, “Design and synthesis of motilin antagonists derived from the [1-4] fragment of porcine motilin” (J Med Chem, 2002)
